Experimental data from patent publication US7585861B2, “HIV inhibiting 1,2,4-triazines” (Janssen Pharmaceutica, N.V., priority 2003, dated 2009).

test system: HIV; assay: Test A: inhibition of the HIV-induced cytopathic effect in MT-4 cells (MTT); type: cell-based; details: Test A; MT-4 cells, MTT; pIC50 = −log IC50, dose achieving 50% protection
Protocol: (§1) A rapid, sensitive and automated assay procedure was used for the in vitro evaluation of anti-HIV agents. An […] T4-cell line, MT-4, which was previously shown (Koyanagi et al., Int. J. Cancer, 36, 445-451, 1985) to be highly susceptible to and permissive for HIV infection, served as the target cell line. Inhibition of the HIV-induced cytopathic effect was used as the end point. The viability of both HIV- and mock-infected cells was assessed spectrophotometrically via the in situ reduction of 3-(4,5-dimethylthiazol-2-yl)-2,5-diphenyltetrazolium bromide (MTT). […] The percent protection achieved by the compound in HTV-infected cells was calculated by the following formula:
(§2) [formula] whereby (ODT)HIV is the optical density measured with a given concentration of the test compound in HIV-infected cells; (ODC)HIV is the optical density measured for the control unteated HIV-infected cells; (ODC)MOCK is the optical density measured for the control untreated mock-infected cells; all optical density values were determined at 540 nm. […] The ratio of CC50 to IC50 was defined as the selectivity index (SI).

SMILES | pIC50 (M)
Cc1cc(CCC#N)cc(C)c1Nc1nc(Nc2ccc(C#N)cc2)nnc1C [Compound 2] | 9.0
Cc1cc(C#N)cc(C)c1Nc1nc(Nc2ccc(C#N)cc2)nnc1C [Compound 5] | 8.7
Cc1cc(C)c(Nc2cnnc(Nc3ccc(C#N)cc3)n2)c(C)c1 [Compound 7] | 9.3
Cc1cc(/C=C/C#N)cc(C)c1Nc1cnnc(Nc2ccc(C#N)cc2)n1 [Compound 8] | 7.3
Cc1cc(CCC#N)cc(C)c1Nc1cnnc(Nc2ccc(C#N)cc2)n1 [Compound 9] | 7.8
N#Cc1ccc(Nc2nncc(Nc3c(Cl)cc(C#N)cc3Cl)n2)cc1 [Compound 10] | 7.6
COc1cc(C)c(Nc2nc(Nc3ccc(C#N)cc3)nnc2C)c(C)c1 [Compound 11] | 9.2
Cc1cc(C)c(Nc2nc(Nc3ccc(C#N)cc3)nnc2C)c(C)c1 [Compound 12] | 8.9
Cc1cc(/C=C/C#N)cc(C)c1Nc1nc(Nc2ccc(C#N)cc2)nnc1C [Compound 13] | 8.2
COc1cc(C)c(Nc2cnnc(Nc3ccc(C#N)cc3)n2)c(C)c1 [Compound 14] | 8.8
Cc1cc(Br)cc(C)c1Nc1cnnc(Nc2ccc(C#N)cc2)n1 [Compound 15] | 8.8
Cc1cc(Br)cc(C)c1Nc1nc(Nc2ccc(C#N)cc2)nnc1C [Compound 16] | 8.7
Cc1cc(C(C)(C)C)cc(C)c1Nc1cnnc(Nc2ccc(C#N)cc2)n1 [Compound 17] | 8.0
Cc1cc(C(C)(C)C)cc(C)c1Nc1nc(Nc2ccc(C#N)cc2)nnc1C [Compound 18] | 8.1
Cc1cc(/C=C\C#N)cc(C)c1Nc1nc(Nc2ccc(C#N)cc2)nnc1C [Compound 19] | 9.0
Cc1cc(CC#N)cc(C)c1Nc1nc(Nc2ccc(C#N)cc2)nnc1C [Compound 20] | 8.6
Cc1cc(/C=C/C(=O)N(C)C)cc(C)c1Nc1nc(Nc2ccc(C#N)cc2)nnc1C [Compound 22] | 7.1
COc1cc(C)cc(C)c1Nc1nc(Nc2ccc(C#N)cc2)nnc1C [Compound 23] | 8.9

SMILES | pIC50 (M)
Cc1cc(CC#N)cc(C)c1Nc1cnnc(Nc2ccc(C#N)cc2)n1 [Compound 24] | 8.8
COc1cc(OC)c(Nc2nc(Nc3ccc(C#N)cc3)nnc2C)c(OC)c1 [Compound 25] | 8.6
Cc1cc(C)c(Nc2nc(Nc3ccc(C#N)cc3)nnc2C)c(CC#N)c1 [Compound 27] | 8.3
Cc1cc(C(=O)N(C)C)cc(C)c1Nc1nc(Nc2ccc(C#N)cc2)nnc1C [Compound 31] | 7.5
COc1cc(/C=C/C#N)cc(OC)c1Nc1nc(Nc2ccc(C#N)cc2)nnc1C [Compound 33] | 8.6
Cc1nnc(Nc2ccc(C#N)cc2)nc1Nc1c(Cl)cc(/C=C/C#N)cc1Cl [Compound 34] | 8.6
CCOc1cc(C)c(Nc2nc(Nc3ccc(C#N)cc3)nnc2C)c(C)c1 [Compound 35] | 8.2
CNC(=O)c1cc(C)c(Nc2cnnc(Nc3ccc(C#N)cc3)n2)c(C)c1 [Compound 37] | 7.0
Cc1cc(OCC#N)cc(C)c1Nc1nc(Nc2ccc(C#N)cc2)nnc1C [Compound 38] | 8.9
Cc1cc(/C=C/C(=O)N2CCCC2)cc(C)c1Nc1nc(Nc2ccc(C#N)cc2)nnc1C [Compound 39] | 7.2
COc1cc(CCC#N)cc(OC)c1Nc1nc(Nc2ccc(C#N)cc2)nnc1C [Compound 40] | 8.6
Cc1cc(OCC#N)cc(C)c1Nc1cnnc(Nc2ccc(C#N)cc2)n1 [Compound 41] | 7.6
CC(C#N)=Cc1cc(C)c(Nc2nc(Nc3ccc(C#N)cc3)nnc2C)c(C)c1 [Compound 42] | 9.1
CCOc1cc(C)c(Nc2cnnc(Nc3ccc(C#N)cc3)n2)c(C)c1 [Compound 43] | 8.1
Cc1cc(C)c(Nc2nnc(Cl)c(Nc3ccc(C#N)cc3)n2)c(C)c1 [Compound 45] | 7.6
Cc1cc(C)c(Sc2nc(Nc3ccc(C#N)cc3)nnc2Cl)c(C)c1 [Compound 46] | 7.9
Cc1cc(/C=C/C(=O)N2CCOCC2)cc(C)c1Oc1nc(Nc2ccc(C#N)cc2)nnc1C [Compound 47] | 8.1

test system: mock-infected MT-4 cells; assay: Test A: cytotoxicity in mock-infected MT-4 cells (MTT); type: cell-based; details: not given
Protocol: as §1, §2

SMILES | PCC50
Cc1cc(CCC#N)cc(C)c1Nc1nc(Nc2ccc(C#N)cc2)nnc1C [Compound 2] | <4.0
Cc1cc(C#N)cc(C)c1Nc1nc(Nc2ccc(C#N)cc2)nnc1C [Compound 5] | <4.0
Cc1cc(/C=C/C#N)cc(C)c1Nc1cnnc(Nc2ccc(C#N)cc2)n1 [Compound 8] | <4.0
Cc1cc(CCC#N)cc(C)c1Nc1cnnc(Nc2ccc(C#N)cc2)n1 [Compound 9] | <4.0
COc1cc(C)c(Nc2nc(Nc3ccc(C#N)cc3)nnc2C)c(C)c1 [Compound 11] | 5.5
Cc1cc(/C=C/C#N)cc(C)c1Nc1nc(Nc2ccc(C#N)cc2)nnc1C [Compound 13] | <4.0
COc1cc(C)c(Nc2cnnc(Nc3ccc(C#N)cc3)n2)c(C)c1 [Compound 14] | <4.0
Cc1cc(Br)cc(C)c1Nc1cnnc(Nc2ccc(C#N)cc2)n1 [Compound 15] | <4.0
Cc1cc(Br)cc(C)c1Nc1nc(Nc2ccc(C#N)cc2)nnc1C [Compound 16] | 4.2
Cc1cc(C(C)(C)C)cc(C)c1Nc1cnnc(Nc2ccc(C#N)cc2)n1 [Compound 17] | <4.0
Cc1cc(C(C)(C)C)cc(C)c1Nc1nc(Nc2ccc(C#N)cc2)nnc1C [Compound 18] | <4.0
Cc1cc(/C=C\C#N)cc(C)c1Nc1nc(Nc2ccc(C#N)cc2)nnc1C [Compound 19] | 4.6
Cc1cc(CC#N)cc(C)c1Nc1nc(Nc2ccc(C#N)cc2)nnc1C [Compound 20] | <4.6
Cc1cc(/C=C/C(=O)N(C)C)cc(C)c1Nc1nc(Nc2ccc(C#N)cc2)nnc1C [Compound 22] | <4.6
COc1cc(C)cc(C)c1Nc1nc(Nc2ccc(C#N)cc2)nnc1C [Compound 23] | 6.4
Cc1cc(CC#N)cc(C)c1Nc1cnnc(Nc2ccc(C#N)cc2)n1 [Compound 24] | <4.6

SMILES | PCC50
COc1cc(OC)c(Nc2nc(Nc3ccc(C#N)cc3)nnc2C)c(OC)c1 [Compound 25] | 4.4
Cc1cc(C)c(Nc2nc(Nc3ccc(C#N)cc3)nnc2C)c(CC#N)c1 [Compound 27] | <4.0
Cc1cc(C(=O)N(C)C)cc(C)c1Nc1nc(Nc2ccc(C#N)cc2)nnc1C [Compound 31] | <4.0
COc1cc(/C=C/C#N)cc(OC)c1Nc1nc(Nc2ccc(C#N)cc2)nnc1C [Compound 33] | 5.4
Cc1nnc(Nc2ccc(C#N)cc2)nc1Nc1c(Cl)cc(/C=C/C#N)cc1Cl [Compound 34] | 5.0
CCOc1cc(C)c(Nc2nc(Nc3ccc(C#N)cc3)nnc2C)c(C)c1 [Compound 35] | <4.6
CNC(=O)c1cc(C)c(Nc2cnnc(Nc3ccc(C#N)cc3)n2)c(C)c1 [Compound 37] | 4.3
Cc1cc(OCC#N)cc(C)c1Nc1nc(Nc2ccc(C#N)cc2)nnc1C [Compound 38] | 4.7
Cc1cc(/C=C/C(=O)N2CCCC2)cc(C)c1Nc1nc(Nc2ccc(C#N)cc2)nnc1C [Compound 39] | <4.0
COc1cc(CCC#N)cc(OC)c1Nc1nc(Nc2ccc(C#N)cc2)nnc1C [Compound 40] | 5.0
Cc1cc(OCC#N)cc(C)c1Nc1cnnc(Nc2ccc(C#N)cc2)n1 [Compound 41] | <4.6
CC(C#N)=Cc1cc(C)c(Nc2nc(Nc3ccc(C#N)cc3)nnc2C)c(C)c1 [Compound 42] | 4.8
CCOc1cc(C)c(Nc2cnnc(Nc3ccc(C#N)cc3)n2)c(C)c1 [Compound 43] | <4.6
Cc1cc(C)c(Nc2nnc(Cl)c(Nc3ccc(C#N)cc3)n2)c(C)c1 [Compound 45] | <4.6
Cc1cc(/C=C/C(=O)N2CCOCC2)cc(C)c1Oc1nc(Nc2ccc(C#N)cc2)nnc1C [Compound 47] | <4.6

same assay, conditions: Test A; mock-infected MT-4 cells, MTT; 50% cytotoxic concentration (CC50 in M)

SMILES | PCC50
Cc1cc(C)c(Nc2cnnc(Nc3ccc(C#N)cc3)n2)c(C)c1 [Compound 7] | 5.5
N#Cc1ccc(Nc2nncc(Nc3c(Cl)cc(C#N)cc3Cl)n2)cc1 [Compound 10] | <4.5
Cc1cc(C)c(Sc2nc(Nc3ccc(C#N)cc3)nnc2Cl)c(C)c1 [Compound 46] | <4.6

test system: HIV; assay: Test B: HIV infection measured fluorometrically in MT-4 cells engineered with GFP (HIV-specific promotor); type: cell-based; details: Human immunodeficiency virus 1, MT4
Protocol: (§3) An […] T4-cell line, MT-4, which was previously shown (Koyanagi et al., Int. J. Cancer, 36, 445-451, 1985) to be highly susceptible to and permissive for HIV infection, served as the target cell line. In these cells, engineered with GFP (and an HIV-specific promotor), ongoing HIV-infection was measured fluorometrically. Cytotoxicity is measured in the same cells, but engineered with GFP under a constitutional promoter. The infection (or inhibition thereof) of HIV infected cells and the flourescence of mock-infected cells is assessed by the fluorescent GFP signal generated by the two above mentioned cell lines.

SMILES | IC50 [µM]
Cc1cc(/C=C/C(N)=O)cc(C)c1Oc1nc(Nc2ccc(C#N)cc2)nnc1C [Compound 48] | 0.000631
Cc1cc(/C=C/C(N)=O)cc(C)c1Nc1nc(Nc2ccc(C#N)cc2)nnc1C [Compound 58] | 0.251
N#C/C=C/c1cc(F)c(Nc2nnc(Cl)c(Nc3ccc(C#N)cc3)n2)c(F)c1 [Compound 62] | 0.00316

test system: not listed separately; assay: Test B: cytotoxicity in mock-infected MT-4 cells engineered with GFP under a constitutional promoter; type: cell-based; details: human
Protocol: as §3

SMILES | CC50 [µM]
Cc1cc(/C=C/C(N)=O)cc(C)c1Oc1nc(Nc2ccc(C#N)cc2)nnc1C [Compound 48] | 25.1
Cc1cc(/C=C/C(N)=O)cc(C)c1Nc1nc(Nc2ccc(C#N)cc2)nnc1C [Compound 58] | 10
N#C/C=C/c1cc(F)c(Nc2nnc(Cl)c(Nc3ccc(C#N)cc3)n2)c(F)c1 [Compound 62] | 25.1

test system: mock-infected MT-4 cells; assay: as above; type: cell-based; details: not given
Protocol: as §3

SMILES | PCC50
N#CC=Cc1cc(Br)c(Nc2nnc(Cl)c(Nc3ccc(C#N)cc3)n2)c(Br)c1 (mixture of isomers) [Compound 78] | 5.1
Cc1cc(/C=C/C(=O)N(C)C)cc(C)c1Oc1nc(Nc2ccc(C#N)cc2)nnc1C [Compound 50] | 4.7
CCNC(=O)c1cc(C)c(Nc2cnnc(Nc3ccc(C#N)cc3)n2)c(C)c1 [Compound 51] | 5.1
Cc1cc(C(=O)N(C)C)cc(C)c1Nc1cnnc(Nc2ccc(C#N)cc2)n1 [Compound 52] | <4.6
Cc1cc(C=CC#N)cc(C)c1Nc1nnc(Cl)c(Nc2ccc(C#N)cc2)n1 [Compound 53] | 4.9
Cc1cc(/C=C/C#N)cc(C)c1Nc1nc(Nc2ccc(C#N)cc2)nnc1Cl [Compound 54] | 4.9
CNC(=O)/C=C/c1cc(C)c(Oc2nc(Nc3ccc(C#N)cc3)nnc2C)c(C)c1 [Compound 56] | 4.8
CCN(C)C(=O)/C=C/c1cc(C)c(Oc2nc(Nc3ccc(C#N)cc3)nnc2C)c(C)c1 [Compound 57] | 4.7
COc1cc(/C=C/C#N)cc(C)c1Nc1nc(Nc2ccc(C#N)cc2)nnc1C [Compound 60] | 6.0
C/C(=C\C#N)c1cc(Cl)c(Nc2nc(Nc3ccc(C#N)cc3)nnc2C)c(Cl)c1 [Compound 61] | 5.4
N#Cc1ccc(Nc2cnnc(Nc3c(F)cc(I)cc3F)n2)cc1 [Compound 63] | 4.9
COc1cc(C)c(Nc2nnc(Cl)c(Nc3ccc(C#N)cc3)n2)c(C)c1 [Compound 64] | 4.7
Cc1cc(/C=C/C#N)cc(Cl)c1Nc1nc(Nc2ccc(C#N)cc2)nnc1C [Compound 65] | 5.3
COc1cc(C(C)=CC#N)cc(C)c1Nc1nc(Nc2ccc(C#N)cc2)nnc1C [Compound 66] | 5.7
COc1cc(/C(C)=C/C#N)cc(OC)c1Nc1nc(Nc2ccc(C#N)cc2)nnc1C [Compound 67] | 4.9
COc1cc(/C(C)=C/C#N)cc(Cl)c1Nc1nc(Nc2ccc(C#N)cc2)nnc1C [Compound 68] | 5.2
C/C(=C\C#N)c1cc(C)c(Nc2nc(Nc3ccc(C#N)cc3)nnc2C)c(Cl)c1 [Compound 69] | 5.7
COc1cc(/C=C/C#N)cc(Cl)c1Nc1nc(Nc2ccc(C#N)cc2)nnc1C [Compound 70] | 6.2
COc1cc(C=C(C)C#N)cc(C)c1Nc1nc(Nc2ccc(C#N)cc2)nnc1C [Compound 71] | 5.1
N#CCCc1cc(Br)c(Nc2nnc(Cl)c(Nc3ccc(C#N)cc3)n2)c(Br)c1 [Compound 73] | <4.6
N#C/C=C/c1cc(Cl)c(Nc2nnc(Cl)c(Nc3ccc(C#N)cc3)n2)c(Cl)c1 [Compound 76] | <4.6
N#C/C=C/c1cc(Cl)c(Nc2nnc(Cl)c(Nc3ccc(C#N)cc3)n2)c(Br)c1 [Compound 77] | 5.0

test system: not given; assay: not given; details: not given

SMILES | melting point [°C]
Cc1cc(CCC#N)cc(C)c1Nc1nnc(Cl)c(Nc2ccc(C#N)cc2)n1 | 266 to 267
N#C/C=C/c1cc(F)c(Nc2nnc(Cl)c(Nc3ccc(C#N)cc3)n2)c(F)c1 [Compound 62] | 276 to 277
